This is an account of results in patent publication US11090292B2, “Compositions and methods of use of an inappetance-controlling compound” (Aratana Therapeutics, Inc., priority 2012, dated 2021).

Data set [1] can be described thus: Example 1: capromorelin concentration in serum. It is filed as in vivo. How it is done: A controlled, seven-day study was performed to assess the impact of different capromorelin-dosing regimens on the production of insulin-like growth factor 1 (hereinafter “IGF-1”), growth hormone (hereinafter “GH”), and cortisol. The different capromorelin-dosing regimens were also assessed for the impact on food intake and changes in body mass.
Eighteen adult non-naïve Beagle dogs (nine males and nine females) were divided into one of three treatment groups. Each of the three treatment groups included three males and three females. Group A, which was the control group, was dosed twice per day, via oral gavage, with a vehicle (deionized water alone) and was used as a baseline data point for comparison against the active treatment regimens. Group B comprised an active treatment group that received two treatments per day, via oral gavage, with a capromorelin-containing composition with a concentration of 3 mg/kg capromorelin per treatment. Finally, Group C comprised an active treatment group that received one treatment per day, via oral gavage, with a capromorelin-containing composition with a concentration of 6 mg/kg capromorelin per treatment.
During the ten day study period, on an at least once-daily basis, each of the dogs was monitored for clinical observations, mortality, morbidity, body mass, and food consumption. Serum samples were taken to measure capromorelin concentration, GH concentration, IGF-1 concentration, and cortisol concentration. Serum samples were taken on days 1, 2, 4, and 7 at −15 minutes (pre-dose), immediately prior to dosing (0 minutes) and 30, 45, 60, 90, 120, 240, 360, and/or 480 minutes post dosing. Additional blood samples were taken at 8 AM on Day 10 of the study to assess long-term impact of the active treatments.

In the next data set the test system is growth hormone. Briefly: Example 5: serum growth hormone. The class given is in vivo, Beagle dogs. As to conditions: Groups 2-4; mitigated by Day 4, further reduced by Day 7. How it is done: In order to further refine the dosing regimen that would provide an appropriate blood profile of capromorelin and desired results from the perspective of increased food intake and weight gain, an additional series of experiments were conducted. In these experiments, twenty-four adult (male and female) Beagle dogs weighing approximately 9 to 13 kilograms were randomly divided into four groups. Group 1 received a placebo formulation, without any active compound, two times per day; Group 2 received a composition comprising 3 mg/kg of body weight of capromorelin one time per day; Group 3 received a composition comprising 4.5 mg/kg of body weight of capromorelin one time per day; and Group 4 received a composition comprising 3 mg/kg of body weight of capromorelin two times per day. […]
In these experiments, the animals were orally administered the flavored formulation at approximately 8:00 AM and, for Group 4 only, again at 6:00 PM. […] Food consumption was calculated and recorded on Days −7 through Day 7. Baseline food consumption was calculated for each individual dog as the average number of grams of food consumed on Days −3, −2, and −1. The study period food consumption was calculated for each individual dog as the average of Days 1 through 7. […]

Another data set concerns IGF-1. Briefly: Example 9: serum IGF-1 concentration. It is filed as in vivo, cats. How it is done:
A four-day study was performed to further assess the pharmacokinetics of formulation 8 from Example 3 (i.e., the most “well-accepted” formulation) in cats. Moreover, the administration of formulation 8 was also analyzed to determine if administration of this formulation could induce sustained production of IGF-1 and relatively depressed, mitigated, or lower levels of cortisol. The different capromorelin-dosing regimens were also assessed for the impact on food intake and changes in body mass.
Twenty-four adult cats were divided into one of four treatment groups, with all four groups as active treatment groups. Each of the active treatment groups included 6 cats. The first group received a sterile injection of a capromorelin composition containing a 0.75 mg/kg concentration of capromorelin once per day during the four-day experiment. The second group received a once-daily sterile injection of a capromorelin composition at a concentration of 2 mg/kg. The third group received a once-daily dose of a capromorelin composition at a concentration of 2 mg/kg, via oral gavage. The fourth group received a once-daily dose of a capromorelin composition containing capromorelin at a concentration of 4 mg/kg, via oral gavage.
During the seven day study period, on an at least once-daily basis, each of the cats was monitored for clinical observations, mortality, moribundity, body mass, acceptability/palatability, and food consumption. Serum samples were taken to measure capromorelin concentration, IGF-1 concentration, and cortisol concentration. Serum samples were taken on days 1 and 4 immediately prior to dosing (0 minutes) and 30, 60, 90, 120, 240, 360, and/or 480 minutes post dosing. Additional serum samples were taken at 8 AM on Day 7 of the study to assess long-term impact of the active treatments.

Setting [2] is: Days 1 and 7, 3 mg/kg twice daily or 6 mg/kg once daily oral gavage.

With `CN1N=C2CCN(C(=O)[C@@H](COCc3ccccc3)NC(=O)C(C)(C)N)C[C@@]2(Cc2ccccc2)C1=O.O=C(O)C(O)C(O)C(=O)O` [capromorelin], the “serum capromorelin by eight hours after dosing (480 minutes)” value in data set [1] (setting [2]) is “decreased to near undetectable levels”. For the same molecule, in data set [1] (setting [2]), the “time after dosing at which serum capromorelin concentrations spike” value is reported as “approximately 0.5 h”. Moreover, in data set [1] (oral gavage), the “serum capromorelin concentration, 6 mg/kg dose relative to twice-daily 3 mg/kg dose” value is “about 2.3 fold”. Also, the “growth hormone in the serum” value in the data set with growth hormone is “increase in growth hormone in the serum on Day 1”. The “increase in serum IGF-1 concentration at eight hours post administration relative to time 0” value in the data set on IGF-1 (0.75 mg/kg sterile injectable, day 1) was “approximately 39.8%”; with IGF-1 (0.75 mg/kg sterile injectable, day 4) it was “approximately 12.2%”; in the data set on IGF-1 (2 mg/kg oral, day 1), “approximately 26.6%”; in the data set with IGF-1 (2 mg/kg oral, day 4), “approximately 7.6%”; with IGF-1 (2 mg/kg sterile injectable, day 1), around 43.1%; in the data set on IGF-1 (2 mg/kg sterile injectable, day 4), around 10.8%. The “increase in serum IGF-1 concentration at eight hours post administration relative to time 0” value in the data set with IGF-1 (4 mg/kg oral, day 1) is listed as around 30.8%; with IGF-1 (4 mg/kg oral, day 4) it was around 0.7%.
